The text below walks through data of patent publication US20100152302A1, “NOVEL CRYSTALLINE FORMS OF ATOVAQUONE” (HETERO DRUGS LIMITED, priority 2007, published 2010).

SMILES strings stand for the structures. Several values for one entry are separate records, joined by “and”; a condition that tells them apart may be missing. Equal entries are not always repeated.

A short description of data set [1]: Specific surface area by B.E.T. nitrogen absorption analysis. The settings on record: isolated crystalline solid of the example, after drying or spray drying. The class given is physicochemical. The source says:
Specific surface area is defined in units of square meters per gram (m^2/g). It is usually measured by nitrogen absorption analysis. In this analysis, nitrogen is absorbed on the surface of the substance. The amount of the absorbed nitrogen (as measured during the absorption or the subsequent desorption process) is related to the surface area via a formula known as the B.E.T. formula.

For data set [2] the following is noted: cited from earlier work.

As for `O=C1C(O)=C([C@H]2CC[C@H](c3ccc(Cl)cc3)CC2)C(=O)c2ccccc21` [atovaquone crystalline form B, trans-2-[4-(4-chlorophenyl)cyclohexyl]-3-hydroxy-1,4-naphthoquinone], the “Specific Surface Area” value in data set [1] was 2.84 m^2/g and 3.12 m^2/g. For the compound `O=C1C(O)=C([C@H]2CC[C@H](c3ccc(Cl)cc3)CC2)C(=O)c2ccccc21` [atovaquone crystalline form A, trans-2-[4-(4-chlorophenyl)cyclohexyl]-3-hydroxy-1,4-naphthoquinone], the “Specific Surface Area” value in data set [1] amounted to 0.76 m^2/g. For the compound `O=C1C(O)=C([C@H]2CC[C@H](c3ccc(Cl)cc3)CC2)C(=O)c2ccccc21` [Atovaquone, trans-2-[4-(4-chlorophenyl)cyclohexyl]-3-hydroxy-1,4-naphthoquinone], the solubility in chloroform result in data set [2] (chloroform) is “soluble”. For the same compound, the solubility in water entry in data set [2] (water) is “practically insoluble”. With `O=C1C(O)=C([C@H]2CC[C@H](c3ccc(Cl)cc3)CC2)C(=O)c2ccccc21` [atovaquone Form I, trans-2-[4-(4-chlorophenyl)cyclohexyl]-3-hydroxy-1,4-naphthoquinone], in data set [1], the “Specific Surface Area” value was found to be 0.54 m^2/g.
